Experimental data published in US11485731B2, “Compounds and methods useful in the treatment of a PRMT5-mediated disorder” (ARGONAUT THERAPEUTICS LIMITED, priority 2017, dated 2022).

Target: human PRMT5/MEP50 (Homo sapiens (Human), UniProt O14744)
Test: PRMT5 chemiluminescent assay
Format: biochemical
Conditions: human PRMT5/MEP50 expressed in HEK293 cells; biotinylated histone peptides; Histone H4 monomethyl R3 antibody; chemiluminescent readout
Procedure, shortened: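 HEK293-expressed PRMT5/MEP50, diluted to 5 ng/µL in assay buffer, reacted 60 min with rotation on plate-bound biotinylated histone peptides. Product was detected with anti-histone H4 R3 monomethyl antibody (60 min), then HRP secondary (30 min) and chemiluminescent substrate. IC50 values came from the chemiluminescence signal.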

Chain of human PRMT5/MEP50 (O14744 whole entry): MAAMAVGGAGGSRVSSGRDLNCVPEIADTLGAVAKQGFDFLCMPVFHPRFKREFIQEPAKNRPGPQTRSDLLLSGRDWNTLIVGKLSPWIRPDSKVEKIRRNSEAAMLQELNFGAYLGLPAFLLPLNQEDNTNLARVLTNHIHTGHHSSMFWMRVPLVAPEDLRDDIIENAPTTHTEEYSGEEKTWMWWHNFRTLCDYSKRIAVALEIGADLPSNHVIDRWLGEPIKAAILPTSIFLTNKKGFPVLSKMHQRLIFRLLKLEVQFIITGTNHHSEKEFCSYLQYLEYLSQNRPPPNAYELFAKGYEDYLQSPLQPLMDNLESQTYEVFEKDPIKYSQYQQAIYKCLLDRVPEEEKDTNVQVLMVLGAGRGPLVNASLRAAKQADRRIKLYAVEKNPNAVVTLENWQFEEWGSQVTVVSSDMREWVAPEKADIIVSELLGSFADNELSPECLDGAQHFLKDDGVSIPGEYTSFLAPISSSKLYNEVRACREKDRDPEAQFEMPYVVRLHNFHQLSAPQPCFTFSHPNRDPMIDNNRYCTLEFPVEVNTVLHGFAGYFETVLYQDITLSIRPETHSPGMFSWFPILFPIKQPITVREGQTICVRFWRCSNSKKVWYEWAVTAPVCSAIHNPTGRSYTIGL
Chain of human PRMT5/MEP50 (Q9BQA1 whole entry partner): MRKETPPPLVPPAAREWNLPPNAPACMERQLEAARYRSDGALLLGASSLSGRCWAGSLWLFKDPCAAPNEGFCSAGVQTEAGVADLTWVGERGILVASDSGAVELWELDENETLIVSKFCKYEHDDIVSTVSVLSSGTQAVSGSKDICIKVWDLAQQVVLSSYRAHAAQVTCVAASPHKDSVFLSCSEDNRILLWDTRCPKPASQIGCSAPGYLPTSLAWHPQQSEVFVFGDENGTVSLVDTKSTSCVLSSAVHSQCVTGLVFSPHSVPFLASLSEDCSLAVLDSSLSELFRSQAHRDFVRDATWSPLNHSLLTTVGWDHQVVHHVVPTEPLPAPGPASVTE

Row | Structure (SMILES) | IC50 [nM]
1 | O=C(NCC(O)CN1CCc2ccccc2C1)N1CCC(C(=O)N2CCOCC2)CC1 (stereo not drawn) [Example 1O, N-(3-(3,4-dihydroisoquinolin-2(1H)-yl)-2-hydroxypropyl)-4-(morpholine-4-carbonyl)piperidine-1-carboxamide] | 51
2 | O=C(NCC(O)CN1CCc2ccccc2C1)N1CCCC(Nc2ccncc2)C1 (stereo not drawn) [Example 1P, N-(3-(3,4-dihydroisoquinolin-2(1H)-yl)-2-hydroxypropyl)-3-(pyridin-4-ylamino)piperidine-1-carboxamide] | 221
3 | O=C(NCC(O)CN1CCc2ccccc2C1)N1CCC(Cc2ccccc2)CC1 (stereo not drawn) [Example 1Q, 4-benzyl-N-(3-(3,4-dihydroisoquinolin-2(1H)-yl)-2-hydroxypropyl)piperidine-1-carboxamide] | 276
4 | O=C(NCC(O)CN1CCc2ccccc2C1)N1CCC(C(=O)N2C3CCC2COC3)CC1 (stereo not drawn) [Example 1R, 4-(3-oxa-8-azabicyclo[3.2.1]octane-8-carbonyl)-N-(3-(3,4-dihydroisoquinolin-2(1H)-yl)-2-hydroxypropyl)piperidine-1-carboxamide] | 11
5 | O=C(NCC(O)CN1CCc2ccccc2C1)N1CCCN(c2ccccc2)CC1 (stereo not drawn) [Example 1S, N-(3-(3,4-dihydroisoquinolin-2(1H)-yl)-2-hydroxypropyl)-4-phenyl-1,4-diazepane-1-carboxamide] | 95
6 | O=C(NCC(O)CN1CCc2ccccc2C1)N1CCCN(Cc2ccccc2)CC1 (stereo not drawn) [Example 1T, 4-benzyl-N-(3-(3,4-dihydroisoquinolin-2(1H)-yl)-2-hydroxypropyl)-1,4-diazepane-1-carboxamide] | 40
7 | O=C(NCC(O)CN1CCc2ccccc2C1)N1CCSCC1 (stereo not drawn) [Example 1U, N-(3-(3,4-dihydroisoquinolin-2(1H)-yl)-2-hydroxypropyl)thiomorpholine-4-carboxamide] | 896
8 | CN(C)C(=O)C1CN(C(=O)NCC(O)CN2CCc3ccccc3C2)C1 (stereo not drawn) [Example 1V, N^1-(3-(3,4-dihydroisoquinolin-2(1H)-yl)-2-hydroxypropyl)-N^3,N^3-dimethylazetidine-1,3-dicarboxamide] | 8540
9 | O=C(NCC(O)CN1CCc2ccccc2C1)N1CC(C(=O)N2CCOCC2)C1 (stereo not drawn) [Example 1W, N-(3-(3,4-dihydroisoquinolin-2(1H)-yl)-2-hydroxypropyl)-3-(morpholine-4-carbonyl)azetidine-1-carboxamide] | 7390
10 | O=C(NCC(O)CN1CCc2ccccc2C1)N1CC(C(=O)N2C3CCC2COC3)C1 (stereo not drawn) [Example 1X, 3-(3-oxa-8-azabicyclo[3.2.1]octane-8-carbonyl)-N-(3-(3,4-dihydroisoquinolin-2(1H)-yl)-2-hydroxypropyl)azetidine-1-carboxamide] | 376
11 | O=C(NCC(O)CN1CCc2sccc2C1)N1CCCc2ccccc21 (stereo not drawn) [Example 1Y, N-(3-(6,7-dihydrothieno[3,2-c]pyridin-5(4H)-yl)-2-hydroxypropyl)-3,4-dihydroquinoline-1(2H)-carboxamide] | 236
12 | O=C(NCC(O)CN1CCc2ccsc2C1)N1CCCc2ccccc21 (stereo not drawn) [Example 1Z, N-(3-(4,7-dihydrothieno[2,3-c]pyridin-6(5H)-yl)-2-hydroxypropyl)-3,4-dihydroquinoline-1(2H)-carboxamide] | 639
13 | O=C(NCC(O)CN1CCc2ccccc2C1)N1CCCc2ccccc21 (stereo not drawn) [Example 2A, N-(3-(3,4-dihydroisoquinolin-2(1H)-yl)-2-hydroxypropyl)-3,4-dihydroquinoline-1(2H)-carboxamide] | 87
14 | O=C(NCC(O)CN1CCc2ccccc2C1)N1CCc2ccccc21 (stereo not drawn) [Example 2B, N-[2-hydroxy-3-(1,2,3,4-tetrahydroisoquinolin-2-yl)propyl]-2,3-dihydro-1H-indole-1-carboxamide] | 8500
15 | O=C(OCC(O)CN1CCc2ccccc2C1)N1CCc2ccccc2C1 (stereo not drawn) [Example 3A, 3-(3,4-dihydroisoquinolin-2(1H)-yl)-2-hydroxypropyl 3,4-dihydroisoquinoline-2(1H)-carboxylate] | 192
16 | O=C(OCC(O)CN1CCc2ccccc2C1)N1CCCCC1 (stereo not drawn) [Example 3B, 2-hydroxy-3-(1,2,3,4-tetrahydroisoquinolin-2-yl)propyl piperidine-1-carboxylate] | 613
17 | O=C(OCC(O)CN1CCc2ccccc2C1)N1CCCC1 (stereo not drawn) [Example 3C, 2-hydroxy-3-(1,2,3,4-tetrahydroisoquinolin-2-yl)propyl pyrrolidine-1-carboxylate] | 9560
18 | O=C(OCC(O)CN1CCc2ccccc2C1)N1CCC(c2ccccc2)C1 (stereo not drawn) [Example 3D, 2-hydroxy-3-(1,2,3,4-tetrahydroisoquinolin-2-yl)propyl 3-phenylpyrrolidine-1-carboxylate] | 15
19 | O=C(OCC(O)CN1CCc2ccccc2C1)N1CCSCC1 (stereo not drawn) [Example 4A, 3-(3,4-dihydroisoquinolin-2(1H)-yl)-2-hydroxypropyl thiomorpholine-4-carboxylate] | 477
20 | O=C(OCC(O)CN1CCc2sccc2C1)N1CCc2ccccc2C1 (stereo not drawn) [Example 4AA, 3-(6,7-dihydrothieno[3,2-c]pyridin-5(4H)-yl)-2-hydroxypropyl 3,4-dihydroisoquinoline-2(1H)-carboxylate] | 46

Row | Structure (SMILES) | IC50 [nM]
21 | O=C(OCC(O)CN1CCc2ccsc2C1)N1CCc2ccccc2C1 (stereo not drawn) [Example 4AB, 3-(4,7-dihydrothieno[2,3-c]pyridin-6(5H)-yl)-2-hydroxypropyl 3,4-dihydroisoquinoline-2(1H)-carboxylate] | 1010
22 | O=C(OCC(O)CN1CCc2sccc2C1)N1CCCC(c2ccccc2)C1 (stereo not drawn) [Example 4AC, 3-(6,7-dihydrothieno[3,2-c]pyridin-5(4H)-yl)-2-hydroxypropyl 3-phenylpiperidine-1-carboxylate] | 374
23 | O=C(OCC(O)CN1CCc2ccsc2C1)N1CCCC(c2ccccc2)C1 (stereo not drawn) [Example 4AD, 3-(4,7-dihydrothieno[2,3-c]pyridin-6(5H)-yl)-2-hydroxypropyl 3-phenylpiperidine-1-carboxylate] | 223
24 | O=C(OCC(O)CN1CCc2sccc2C1)N1CCC(c2ccccc2)C1 (stereo not drawn) [Example 4AE, 3-(6,7-dihydrothieno[3,2-c]pyridin-5(4H)-yl)-2-hydroxypropyl 3-phenylpyrrolidine-1-carboxylate] | 41
25 | O=C(OCC(O)CN1CCc2ccsc2C1)N1CCC(c2ccccc2)C1 (stereo not drawn) [Example 4AF, 3-(4,7-dihydrothieno[2,3-c]pyridin-6(5H)-yl)-2-hydroxypropyl 3-phenylpyrrolidine-1-carboxylate] | 21
26 | O=C(OCC(O)CN1CCc2ccccc2C1)N1CCCc2ccccc21 (stereo not drawn) [Example 4AG, 3-(3,4-dihydroisoquinolin-2(1H)-yl)-2-hydroxypropyl 3,4-dihydroquinoline-1(2H)-carboxylate] | 360
27 | O=C(OCC(O)CN1CCc2ccccc2C1)N1CCC(C(=O)N2CCOCC2)CC1 (stereo not drawn) [Example 4B, 3-(3,4-dihydroisoquinolin-2(1H)-yl)-2-hydroxypropyl 4-(morpholine-4-carbonyl)piperidine-1-carboxylate] | 75
28 | O=C(OCC(O)CN1CCc2ccccc2C1)N1CCCC(Nc2ccncc2)C1 (stereo not drawn) [Example 4C, 3-(3,4-dihydroisoquinolin-2(1H)-yl)-2-hydroxypropyl 3-(pyridin-4-ylamino)piperidine-1-carboxylate] | 25
29 | O=C(OCC(O)CN1CCc2ccccc2C1)N1CCC(Cc2ccccc2)CC1 (stereo not drawn) [Example 4D, 3-(3,4-dihydroisoquinolin-2(1H)-yl)-2-hydroxypropyl 4-benzylpiperidine-1-carboxylate] | 173
30 | O=C(OC[C@H](O)CN1CCc2ccccc2C1)N1CCC(c2ccccc2)C1 (stereo partly drawn) [Example 4E, (R)-3-(3,4-dihydroisoquinolin-2(1H)-yl)-2-hydroxypropyl 3-phenylpyrrolidine-1-carboxylate] | 19
31 | O=C(OC[C@@H](O)CN1CCc2ccccc2C1)N1CCC(c2ccccc2)C1 (stereo partly drawn) [Example 4F, (S)-3-(3,4-dihydroisoquinolin-2(1H)-yl)-2-hydroxypropyl 3-phenylpyrrolidine-1-carboxylate] | 49
32 | O=C(OC[C@H](O)CN1CCc2ccccc2C1)N1CCc2ccccc2C1 [Example 4G, (R)-3-(3,4-dihydroisoquinolin-2(1H)-yl)-2-hydroxypropyl 3,4-dihydroisoquinoline-2(1H)-carboxylate] | 8
33 | O=C(OC[C@@H](O)CN1CCc2ccccc2C1)N1CCc2ccccc2C1 [Example 4H, (S)-3-(3,4-dihydroisoquinolin-2(1H)-yl)-2-hydroxypropyl 3,4-dihydroisoquinoline-2(1H)-carboxylate] | 539
34 | O=C(OCC(O)CN1CCc2ccccc2C1)N1CCCC(O)C1 (stereo not drawn) [Example 4I, 3-(3,4-dihydroisoquinolin-2(1H)-yl)-2-hydroxypropyl 3-hydroxypiperidine-1-carboxylate] | 8830
35 | CN1CCCN(C(=O)OCC(O)CN2CCc3ccccc3C2)CC1 (stereo not drawn) [Example 4J, 3-(3,4-dihydroisoquinolin-2(1H)-yl)-2-hydroxypropyl 4-methyl-1,4-diazepane-1-carboxylate] | 246
36 | O=C(OC[C@H](O)CN1CCc2ccccc2C1)N1CC[C@@H](c2ccccc2)C1 [Example 4K, (R)-3-(3,4-dihydroisoquinolin-2(1H)-yl)-2-hydroxypropyl (S)-3-phenylpyrrolidine-1-carboxylate] | 20
37 | O=C(OC[C@H](O)CN1CCc2ccccc2C1)N1CC[C@H](c2ccccc2)C1 [Example 4L, (R)-3-(3,4-dihydroisoquinolin-2(1H)-yl)-2-hydroxypropyl (R)-3-phenylpyrrolidine-1-carboxylate] | 13
38 | O=C(OCC(O)CN1CCc2ccccc2C1)N1CC[S+]([O-])CC1 (stereo not drawn) [Example 4M, 3-(3,4-dihydroisoquinolin-2(1H)-yl)-2-hydroxypropyl thiomorpholine-4-carboxylate 1-oxide] | 2220
39 | O=C(OCC(O)CN1CCc2ccccc2C1)N1CCS(=O)(=O)CC1 (stereo not drawn) [Example 4N, 3-(3,4-dihydroisoquinolin-2(1H)-yl)-2-hydroxypropyl thiomorpholine-4-carboxylate 1,1-dioxide] | 213000
